Data as given in publication PMC12136037, “Type II kinase inhibitors that target Parkinson’s disease–associated LRRK2” (Science Advances, 2025).

How the values were obtained:
Assay in all cases: DSF 100 kinase selectivity screen;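 further: compound tested at 20 µM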
Format in all cases: binding
[1] = biological target: T1, ~100 representative kinases (Homo sapiens, UniProt Q96GD4); conditions: Protein AURKB; average of three replicates
T1 construct: Recombinant protein kinase domains with a concentration of 2 μM
How it was run: (§1)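 Each kinase domain, at 2 μM, is mixed with 20 μM test compound and SYPRO Orange in Hepes (20 mM, pH 7.5) with 500 mM NaCl. Temperature is then raised at 3°C/min and fluorescence-monitored unfolding yields the melting temperature change, ΔTm in degrees Celsius.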

[2] = biological target: T2, ~100 representative kinases (Homo sapiens, UniProt O75385); conditions: Protein ULK1; DSF; average of three replicates
T2 construct: Recombinant protein kinase domains with a concentration of 2 μM
T2 sequence (O75385 1-1050): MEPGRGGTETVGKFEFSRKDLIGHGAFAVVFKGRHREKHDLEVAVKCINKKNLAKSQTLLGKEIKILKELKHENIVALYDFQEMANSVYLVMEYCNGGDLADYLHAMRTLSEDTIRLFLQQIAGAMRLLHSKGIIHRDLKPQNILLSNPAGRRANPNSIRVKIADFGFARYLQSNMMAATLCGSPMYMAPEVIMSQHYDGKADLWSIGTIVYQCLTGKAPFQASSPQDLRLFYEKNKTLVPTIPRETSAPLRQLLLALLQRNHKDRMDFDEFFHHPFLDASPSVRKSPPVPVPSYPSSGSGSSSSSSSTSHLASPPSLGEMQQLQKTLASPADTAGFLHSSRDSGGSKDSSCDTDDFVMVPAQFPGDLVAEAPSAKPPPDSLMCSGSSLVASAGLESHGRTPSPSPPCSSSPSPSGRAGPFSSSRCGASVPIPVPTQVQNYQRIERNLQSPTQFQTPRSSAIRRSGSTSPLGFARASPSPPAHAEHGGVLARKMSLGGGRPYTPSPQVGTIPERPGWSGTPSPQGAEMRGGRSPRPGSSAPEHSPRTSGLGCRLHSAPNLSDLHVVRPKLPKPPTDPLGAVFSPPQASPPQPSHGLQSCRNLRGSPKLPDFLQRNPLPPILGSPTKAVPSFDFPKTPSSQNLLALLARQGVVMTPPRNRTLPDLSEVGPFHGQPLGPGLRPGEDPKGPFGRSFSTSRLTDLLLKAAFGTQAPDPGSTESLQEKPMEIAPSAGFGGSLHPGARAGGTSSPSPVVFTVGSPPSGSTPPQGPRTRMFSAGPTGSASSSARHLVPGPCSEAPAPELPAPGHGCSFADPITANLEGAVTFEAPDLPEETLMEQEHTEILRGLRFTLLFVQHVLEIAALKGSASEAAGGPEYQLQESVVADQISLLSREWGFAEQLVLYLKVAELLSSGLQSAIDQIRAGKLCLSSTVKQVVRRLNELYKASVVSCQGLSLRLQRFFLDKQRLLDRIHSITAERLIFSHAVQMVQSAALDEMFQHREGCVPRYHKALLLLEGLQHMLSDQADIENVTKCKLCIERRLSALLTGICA
How it was run: as §1

[3] = biological target: T3, ~100 representative kinases (Homo sapiens, UniProt O15164); conditions: Protein TIF1; DSF; average of three replicates
T3 construct: Recombinant protein kinase domains with a concentration of 2 μM
T3 sequence (O15164 1-1050): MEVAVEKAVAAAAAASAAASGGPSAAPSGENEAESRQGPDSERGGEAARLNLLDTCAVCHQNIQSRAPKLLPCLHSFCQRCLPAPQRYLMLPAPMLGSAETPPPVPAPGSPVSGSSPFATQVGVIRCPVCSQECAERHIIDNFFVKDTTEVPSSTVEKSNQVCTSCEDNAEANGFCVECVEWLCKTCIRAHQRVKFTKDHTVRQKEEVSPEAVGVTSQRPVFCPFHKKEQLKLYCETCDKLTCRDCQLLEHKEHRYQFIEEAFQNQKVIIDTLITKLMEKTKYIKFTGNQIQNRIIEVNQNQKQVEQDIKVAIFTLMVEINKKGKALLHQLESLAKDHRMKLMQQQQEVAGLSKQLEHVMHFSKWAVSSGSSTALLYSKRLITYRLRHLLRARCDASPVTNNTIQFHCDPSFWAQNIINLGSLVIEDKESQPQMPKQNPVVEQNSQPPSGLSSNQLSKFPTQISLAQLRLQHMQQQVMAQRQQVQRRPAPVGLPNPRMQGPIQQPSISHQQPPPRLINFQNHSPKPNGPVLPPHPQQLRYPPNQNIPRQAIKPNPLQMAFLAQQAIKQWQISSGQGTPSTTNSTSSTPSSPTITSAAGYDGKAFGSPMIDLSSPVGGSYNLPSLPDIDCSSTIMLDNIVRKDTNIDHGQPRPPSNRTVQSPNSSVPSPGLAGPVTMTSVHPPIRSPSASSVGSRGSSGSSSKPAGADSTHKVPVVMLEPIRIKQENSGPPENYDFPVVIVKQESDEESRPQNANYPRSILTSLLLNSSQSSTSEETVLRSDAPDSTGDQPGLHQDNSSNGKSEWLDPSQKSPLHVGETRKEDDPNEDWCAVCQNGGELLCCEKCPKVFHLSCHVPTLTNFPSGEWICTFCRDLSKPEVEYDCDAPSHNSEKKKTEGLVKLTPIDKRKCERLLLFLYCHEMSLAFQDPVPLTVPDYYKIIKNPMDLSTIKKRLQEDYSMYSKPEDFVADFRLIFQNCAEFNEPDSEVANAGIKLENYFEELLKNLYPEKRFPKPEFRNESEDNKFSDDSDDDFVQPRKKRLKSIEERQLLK
How it was run: as §1

[4] = biological target: T4, ~100 representative kinases (Homo sapiens, UniProt P22607); conditions: protein FGFR3; average of three replicates
T4 construct: Recombinant protein kinase domains with a concentration of 2 μM
How it was run: as §1

[5] = biological target: T5, ~100 representative kinases (Homo sapiens, UniProt Q16654); conditions: protein PDK4; average of three replicates
T5 construct: Recombinant protein kinase domains with a concentration of 2 μM
How it was run: as §1

[6] = biological target: T6, ~100 representative kinases (Homo sapiens, UniProt Q02750); conditions: protein MAP2K1; average of three replicates
T6 construct: Recombinant protein kinase domains with a concentration of 2 μM
How it was run: as §1

T6 sequence (Q02750 whole entry, the tested form may be a part): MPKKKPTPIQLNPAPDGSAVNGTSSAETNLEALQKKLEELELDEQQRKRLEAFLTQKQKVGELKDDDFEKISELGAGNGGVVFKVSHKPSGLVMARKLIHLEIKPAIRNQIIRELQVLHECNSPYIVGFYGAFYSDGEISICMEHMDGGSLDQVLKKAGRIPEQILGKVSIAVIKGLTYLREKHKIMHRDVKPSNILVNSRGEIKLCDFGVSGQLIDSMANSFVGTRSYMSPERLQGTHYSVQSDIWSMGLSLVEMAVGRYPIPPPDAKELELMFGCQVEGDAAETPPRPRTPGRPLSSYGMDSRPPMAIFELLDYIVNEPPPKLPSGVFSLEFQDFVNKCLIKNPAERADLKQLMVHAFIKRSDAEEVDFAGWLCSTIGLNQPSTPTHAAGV
T5 sequence (Q16654 whole entry, the tested form may be a part): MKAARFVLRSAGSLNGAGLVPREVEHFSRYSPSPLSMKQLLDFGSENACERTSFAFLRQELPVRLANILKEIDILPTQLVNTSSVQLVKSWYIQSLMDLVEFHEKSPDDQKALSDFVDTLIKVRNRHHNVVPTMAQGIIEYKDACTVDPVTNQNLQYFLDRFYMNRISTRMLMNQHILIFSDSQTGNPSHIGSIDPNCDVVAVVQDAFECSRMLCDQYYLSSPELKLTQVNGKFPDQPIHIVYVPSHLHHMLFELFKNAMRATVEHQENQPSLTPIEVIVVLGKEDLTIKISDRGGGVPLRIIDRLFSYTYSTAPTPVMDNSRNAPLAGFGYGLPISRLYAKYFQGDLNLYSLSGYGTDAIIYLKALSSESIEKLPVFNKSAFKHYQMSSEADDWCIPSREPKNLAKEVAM
T4 sequence (P22607 23-806): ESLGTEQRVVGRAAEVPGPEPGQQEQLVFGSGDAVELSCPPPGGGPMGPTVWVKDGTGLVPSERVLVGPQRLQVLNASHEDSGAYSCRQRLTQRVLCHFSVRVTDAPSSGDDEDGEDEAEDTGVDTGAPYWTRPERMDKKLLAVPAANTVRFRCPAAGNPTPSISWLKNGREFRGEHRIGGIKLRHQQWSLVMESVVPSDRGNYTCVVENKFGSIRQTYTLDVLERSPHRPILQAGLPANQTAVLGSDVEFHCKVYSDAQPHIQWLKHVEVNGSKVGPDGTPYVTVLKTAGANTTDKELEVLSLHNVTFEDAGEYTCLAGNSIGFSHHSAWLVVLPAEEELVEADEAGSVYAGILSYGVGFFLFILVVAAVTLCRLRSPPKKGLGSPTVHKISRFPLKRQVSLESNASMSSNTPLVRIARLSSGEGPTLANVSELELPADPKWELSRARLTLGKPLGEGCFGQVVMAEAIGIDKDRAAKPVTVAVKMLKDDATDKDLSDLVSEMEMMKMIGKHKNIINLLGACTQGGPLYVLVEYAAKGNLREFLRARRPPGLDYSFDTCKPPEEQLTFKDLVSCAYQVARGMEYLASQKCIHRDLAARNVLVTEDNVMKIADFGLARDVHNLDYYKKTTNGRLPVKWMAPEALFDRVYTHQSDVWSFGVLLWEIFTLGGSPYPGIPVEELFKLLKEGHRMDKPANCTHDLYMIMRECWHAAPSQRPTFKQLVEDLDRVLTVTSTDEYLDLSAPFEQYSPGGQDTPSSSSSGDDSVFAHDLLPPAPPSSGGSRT
T1 sequence (Q96GD4 whole entry, the tested form may be a part): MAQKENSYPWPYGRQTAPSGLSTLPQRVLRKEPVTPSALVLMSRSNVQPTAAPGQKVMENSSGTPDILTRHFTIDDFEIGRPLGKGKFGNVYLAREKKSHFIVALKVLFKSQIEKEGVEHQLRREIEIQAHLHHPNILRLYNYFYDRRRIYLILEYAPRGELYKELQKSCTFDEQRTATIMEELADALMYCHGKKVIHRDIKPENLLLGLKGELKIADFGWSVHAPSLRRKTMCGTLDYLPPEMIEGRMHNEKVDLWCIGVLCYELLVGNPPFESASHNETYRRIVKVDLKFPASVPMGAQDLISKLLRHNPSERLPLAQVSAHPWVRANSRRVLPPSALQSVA

Cc1ccc(C(=O)Nc2ccc(CN3CCN(C)CC3)c(C(F)(F)F)c2)cc1C#Cc1c[nH]c2ncnc(N3CCOCC3)c12 [Compound 1]
dTm [1]: 1.01 K | dTm [2]: 6.89 K | dTm [3]: 0.45 K | dTm [4]: 4.20 K | dTm [5]: -0.54 K

CCNc1nc(Nc2cc(F)c(C(=O)N3CCOCC3)cc2OC)ncc1C(F)(F)F [GNE-7915]
dTm [1]: -1.42 K | dTm [2]: 1.06 K | dTm [3]: -0.22 K | dTm [4]: 1.40 K | dTm [5]: -0.0168 K | dTm [6]: 0.0455 K

Cc1ccc(C(=O)Nc2ccc(CN3CCN(C)CC3)c(C(F)(F)F)c2)cc1C#Cc1cnc2[nH]ncc2c1 [GZD-824, reference compound]
dTm [1]: 1.02 K | dTm [2]: 6.60 K | dTm [3]: 0.34 K | dTm [4]: 14.11 K | dTm [5]: -0.28 K | dTm [6]: 0.63 K

C[C@@H]1CN(c2cc(-c3n[nH]c4ccc(OC5(C)CC5)cc34)ncn2)C[C@H](C)O1 [MLi2]
dTm [1]: -0.83 K | dTm [2]: 0.01 K | dTm [3]: 0.28 K | dTm [4]: 0.31 K | dTm [5]: -0.0742 K | dTm [6]: -0.0332 K

Cn1cc(-c2c[nH]c3ncnc(N4CCOCC4)c23)cc1C#N [PFE-360]
dTm [1]: 2.36 K | dTm [2]: 1.48 K | dTm [3]: 0.08 K | dTm [4]: 2.13 K | dTm [5]: -0.55 K | dTm [6]: 0.65 K

Cc1ccc(C(=O)Nc2ccc(CN3CCN(C)CC3)c(C(F)(F)F)c2)cc1C#Cc1cnc2cccnn12 [Ponatinib, reference compound]
dTm [1]: 0.49 K | dTm [3]: 0.0214 K | dTm [4]: 14.03 K | dTm [5]: -0.09 K
